Measurements from patent US11110080B2, “Small molecule inhibitors of bacterial efflux pumps and methods of using same” (The Regents of the University of Colorado, a body Corporate, priority 2017, dated 2021).
“Also recorded” adds a separate entry of the source. Like-named read-outs stand apart in the source and are kept apart here. Peptide text beside a SMILES is read from it. * marks the point of attachment. βNA = c1ccc2cc(N*)ccc2c1

Tests used:
[1] = tested on: Salmonella enterica serovar Typhimurium (S.Tm) within RAW 264.7 murine macrophages; assay: SAFIRE: fluorescence microscopy assay of S.Tm load within macrophages; type: cell-based; conditions: for hit status in SAFIRE screen: Maybridge HitFinder v11 library screened at 25 μM; for percentage of infected macrophages (validated hit): among the 309 hits
Protocol: A high-content, high-throughput fluorescence microscopy-based screening platform to assay S.Tm load within macrophages was developed (FIG. 1A). RAW 264.7 murine macrophages, a widely used cell line for bacterial infection studies, were infected with bacteria in a standard gentamicin protection assay. The Salmonella expressing GFP driven by the sifB promoter was incubated with the compound beginning at 2 hours post-infection. At 18 hours post-infection, cells were stained with MitoTracker Red CMXRos as a marker of macrophage vitality and processed for fluorescence microscopy. Stained with DAPI. A MATLAB®-based algorithm was developed to quantify infection (FIG. 1B) and compared to statistics to describe infection. Percentage of infected cells was determined by counting the proportion of macrophages within an image with at least 2 GFP+ pixels. Infection area was calculated by normalizing the number of GFP+ pixels within a cell to the cell's total area, then averaging across all cells in an image. To evaluate the approach, 2 μg/ml rifampicin in 96-well and 384-well plates was tested in three independent replicates. The Z′-factor was employed as a measure of assay reproducibility. Numbers close to 1 indicated high reproducibility. For percentage of infected macrophages, the Z′-factor was 0.59 and 0.48 in 96-well and 384-well plates, respectively, compared with 0.66 and 0.38 for infection area. The optimal Z′-factor threshold for high-throughput screening was 0.5; however, values above 0 were considered marginal but feasible. Therefore, the percentage of infected macrophages statistic was used.
The 14,400 compound library Maybridge HitFinder™ v11 was screened, which has been extensively screened against mammalian and microbial targets. The library was screened in duplicate at 25 μM in 384-well plates (FIG. 1C). Data were normalized using the B-score method to remove positional variation. The significance of B-scores was calculated using a modified t-test assuming an inverse gamma distribution of variances. Using a dual threshold of B-score greater than 1 and standard deviation from the mean and p-value less than 0.05, 908 compounds (6.3%) were identified that decreased or increased the percentage of infected macrophages. […] Compounds that altered infection by at least 25% in 96-well plates were considered validated hits.
For high-throughput screening and validation, 7×10^3 macrophages in 40 μL or 3×10^4 macrophages in 100 μL were seeded in 384- or 96-well black-walled, glass-bottomed plates (Brooks Automation). […] Forty-five minutes after bacterial addition, 20 or 50 μL gentamicin was added to a final concentration of 40 μg/mL. […] At 2 hours post-infection, 200 or 500 nL compound was added using a pin tool (CyBio) to yield a final concentration of 25 μM. Each assay plate included rifampicin and DMSO controls. In some experiments, media was removed and replaced with fresh medium containing 40 μg/mL gentamicin and the indicated concentrations of drugs. At 17.5 hours post-infection, PBS containing MitoTracker Red CMXRos (Life Technologies) was added to yield a final concentration of 300 nM (384-well) or 100 nM (96-well). Thirty minutes later, 16% paraformaldehyde was added to a final concentration of 1-2% and incubated at room temperature for 15 minutes. Wells were washed twice with PBS and stained for 20 minutes with 1 μM DAPI; wells were washed twice and stored in 90% glycerol in PBS until imaging.
High magnification images were acquired on an Olympus IX81 inverted widefield microscope. For screening imaging, three-color images were acquired at 10× or 20× on a Cellomics ArrayScan VTI (Thermo) and exported to DIB files. At least two images were taken per well for all experiments. […]

[2] = tested on: S.Tm; assay: Swimming assay in soft agar (proton motive force); type: cell-based, Salmonella enterica serovar Typhimurium; conditions: 400× the MIC (4 μM)
Protocol: One way to inhibit efflux pumps is to disrupt the proton motive force, which is required for transport by some EPs. […] Bacteria were injected into the center of 0.25% agar plates, and 10 μl of compound was added to paper disks on the periphery. […] Also ampicillin and rifampicin were tested. We plotted the halo radius versus the concentration as the fold above the MIC (FIG. 9G). […] Next, it was determined whether PAβN inhibited swimming; PAβN is thought to disrupt membranes over long incubations. […] Finally, the EPMs at […] were tested (FIGS. 9D-F).
Saturated overnight cultures were diluted to an OD600 of 0.01 in LB and 1 μL was injected into the center of low agar (0.25%) LB plates. Ten microliters of the indicated compounds were added to sterilized Whatman paper disks (diameter 0.7 cm) placed equidistant from the plate center.

[3] = tested on: S.Tm wild-type SL1344, MAR1 and S10801; assay: microbe, parasite or virus in culture; type: cell-based, Salmonella enterica serovar Typhimurium; conditions: for MIC: Salmonella enterica
Protocol: Increased expression or function of efflux pumps often contributes to clinical multidrug resistance. Therefore, whether the EPMs re-sensitize two multidrug resistant strains of S.Tm to tetracycline was tested. Tetracycline is an antibiotic exported by AcrAB. The MAR1 strain is derived from wild-type SL1344 was selected by exposure to tetracycline, and has increased expression of the AcrAB efflux pump. S10801 is an MDR strain isolated from the mesenteric lymph node of a septic calf and is resistant to tetracycline, ampicillin, chloramphenicol, nalidixic acid, and triple sulfa. The basis of multi-drug resistance in this strain is unknown.
Overnight Salmonella cultures were washed 3 times in PBS and diluted to an OD of 0.01 in Mueller Hinton Broth in 96-well flat bottom plates. Compound was added using a pin tool (CyBio) or manually, yielding a final concentration of no more than 1% DMSO. Plates were grown at 37° C. shaking and OD600 was monitored using a BioTek Eon incubator shaker microplate absorbance reader. For experiments in defined media, bacteria were grown in M9 minimal media supplemented with 100 mM Tris pH 7.4, 0.35% glycerol, 0.002% histidine, 10 mM MgCl2, and 0.1% casamino acids. Where indicated, media was supplemented with 5 μg/ml polymyxin B or 0.2 mM H2O2. For experiments with LL-37, bacteria were grown in M9 minimal media supplemented with 0.4% dextrose, 0.004% histidine, 1 mM MgSO4, and 5 μg/ml LL-37. For checkerboard assays, MIC was defined as the concentration at which no growth was visually observed.

[4] = tested on: S.Tm efflux pumps; assay: Hoechst 33342 accumulation assay; type: cell-based, Salmonella enterica serovar Typhimurium; conditions: wild-type S.Tm, 60 minutes
Protocol: Efflux pumps (EPs) represent a key pathogen virulence strategy to protect against host antimicrobials as well as therapeutic antibiotics. […] To uncover putative EPMs within our collection of hits, 58 repurchased compounds were screened in a Hoechst accumulation assay. Bacteria were incubated with Hoechst 33342, a dye which fluoresces when bound to DNA.
Hoechst accumulation assays were performed essentially as described in the literature. Briefly, overnight Salmonella cultures were washed 3 times in PBS and diluted to an OD of 0.1 in PBS with 2.5 μM Hoechst 33342 in the presence of the indicated concentrations of compounds. Fluorescence was monitored on a Biotek Synergy 2 with a 360/40 nm excitation filter and 460/40 nm emission filter. The maximum Hoechst fluorescence over 60 minutes of incubation was normalized to the signal from the equivalent number of heat-killed bacteria, after subtraction of autofluroescent signal determined from compound incubated in the absence of bacteria. Curve fitting to determine EC50s was performed using GraphPad Prism.

[5] = tested on: S.Tm efflux pumps; assay: Nile Red efflux assay; type: cell-based, Salmonella enterica serovar Typhimurium
Excerpt: Because Hoechst and other dyes commonly used to assess efflux bind cellular components, direct measurement of efflux is not possible using these methods; instead, the Hoechst assay measures dye accumulation, the net result of entry and efflux. Further, the slow off-rate of Hoechst entails that efflux pumps have no effect on dye already bound to DNA. As a result, compounds which increase Hoechst accumulation may actually enhance dye entry by altering porins or disrupting the membrane. To more specifically measure efflux pump activity, a second technique was employed using the dye Nile Red, a lipophilic membrane-partitioning dye which fluoresces in nonpolar environments. Because Nile Red is not known to bind cellular components, to directly observe efflux cells were preloaded with the dye in the absence of glucose to reduce efflux pump activity (FIG. 7A). Upon addition of glucose, bacteria rapidly effluxed Nile Red and fluorescence returned to baseline levels (FIG. 7B, top panel). […] The initial measured fluorescence was lower for DMSO-treated cells (upper dotted line) than for PAβN-treated cells due to glucose-independent efflux during sample preparation (FIG. 8A). Next, it was determined whether efflux pump activity is restored after removal of PAβN. Bacteria were incubated with compound for 15 minutes, pelleted and resuspended in buffer lacking compound, and then stimulated with glucose (FIGS. 7C, 7E).
Nile Red assays were adapted from an established protocol. Briefly, overnight Salmonella cultures were grown in Mueller-Hinton cation-adjusted broth (Sigma), washed, and resuspended at an OD600 of 2.0. Cells were incubated in 10 μM Nile Red for 3 hours at 37° C. with aeration, then moved to room temperature for 1 hour. After pelleting at 2000× g, dye-loaded cells were aliquoted and combined with compound at the indicated concentrations. Two hundred microliters was loaded into 96-well black walled plates (Greiner) and read using a Varioskan Flash Multimode Reader with 540 nm excitation and 625 nm emission filters. We observed that during loading into plates (˜20 minutes), bacteria were able to efflux Nile Red even in the absence of glucose (FIG. 8A). To activate efflux, glucose was added to a final concentration of 2 mM. In some experiments, bacteria were treated with drug for 15 minutes, pelleted at 16,000×g, resuspended in fresh buffer, and stimulated with 2 mM glucose. All wash and incubation steps were performed in PBS with 1 mM MgCl2; incubations were performed in glass tubes to reduce adhesion of Nile Red.

[6] = Log D, solubility and predicted bioavailability; type: physicochemical; conditions: high concentrations

SMILES: CN(C)CCCN1c2ccccc2CCc2ccc(Cl)cc21 [Clomipramine]
- hit status in SAFIRE screen [1]: Clomipramine^1

SMILES: Nc1c2ccccc2nc2ccccc12 [9-aminoacridine]
- percentage of infected macrophages (validated hit) ([1]; 25 μM): decreased the percentage of infected macrophages
- hit status in SAFIRE screen [1]: 9-aminoacridine^1

SMILES: O=C(O)c1cn(C2CC2)c2cc(N3CCNCC3)c(F)cc2c1=O [ciprofloxacin, reference compound]
- halo in swimming assay [2]: formed a halo similar in size to that of CCCP

SMILES: O=C(NC1CCN(CCc2c[nH]c3ccccc23)CC1)c1ccccc1 [Indoramin]
- hit status in SAFIRE screen [1]: Indoramin^1

SMILES: CN(C)[C@@H]1C(O)=C(C(N)=O)C(=O)[C@@]2(O)C(O)=C3C(=O)c4c(O)cccc4[C@@](C)(O)[C@H]3C[C@@H]12 [tetracycline]
- increase in tetracycline MIC over wild type ([3]; MAR1): 2 fold
- increase in tetracycline MIC over wild type ([3]; S10801): 64 fold
- MIC ([3]; read-out: tetracycline MIC, MAR1): 4 µg/mL
- MIC ([3]; read-out: tetracycline MIC, S10801): 128 µg/mL
- MIC ([3]; read-out: tetracycline MIC, wild-type S.Tm): 2 µg/mL

SMILES: CC1(C)S[C@@H]2[C@H](N)C(=O)N2[C@H]1C(=O)O [6-aminopenicillinate]
- activity in the screen ([1]; 25 μM): modest activity
- average B-score from the screen ([1]; 25 μM, duplicate, threshold −2.17): −2.29
- hit status in SAFIRE screen [1]: 6-aminopenicillinate^2

SMILES: Br.NC(N)=NCCCC(NC(=O)C(N)Cc1ccccc1)C(=O)Nc1ccc2ccccc2c1 (stereo not drawn) [PAβN, Phe-Arg β-naphthylamide, reference compound] (H-Phe-Arg-βNA; configuration not given here)
- Hoechst accumulation / fluorescence [4]: Hoechst accumulation increased
- Hoechst accumulation / fluorescence ([4]; listed as PaβN): higher levels of fluorescence
- glucose-activated efflux of Nile Red ([5]; 500 μM): inhibited glucose-activated efflux
- Nile Red efflux, dose response ([5]; 7 minutes post-glucose addition): dose dependent inhibition of Nile Red efflux; also recorded: reduced the rate and extent of Nile Red export
- Nile Red efflux after washout of compound ([5]; 15 minutes with compound, washed, then glucose): partially restored Nile Red export
- Nile Red fluorescence in the absence of glucose (basal loss) ([5]; no glucose): inhibit basal loss of Nile Red
- solubility in cell culture media [6]: insolubility of high concentrations in cell culture media
- decrease of the tetracycline MIC ([3]; 250 μM (⅛ MIC), both strains MAR1 and S10801): 4 fold

SMILES: O=C(N[C@H](CO)[C@H](O)c1ccc([N+](=O)[O-])cc1)C(Cl)Cl [Chloramphenicol]
- percentage of infected macrophages (validated hit) ([1]; 25 μM): decreased the percentage of infected macrophages
- hit status in SAFIRE screen [1]: Chloramphenicol^1
